Source: the NIST ThermoML archive (doi:10.1016/j.jct.2012.02.023)

Test: xn = mol fraction of the nth substance listed
Conditions: 101 kPa, Liquid; for speed of sound: Sing-around technique in a fixed-path interferometer; for mass density: Vibrating tube method

CCCC[n+]1ccc(C)cc1.F[B-](F)(F)F [1-butyl-4-methylpyridinium tetrafluoroborate] + CCO
Conditions | mass density, 293.15 K [kg/m3] | mass density, 303.15 K [kg/m3] | mass density, 313.15 K [kg/m3] | mass density, 323.15 K [kg/m3] | speed of sound, 293.15 K [m/s] | speed of sound, 303.15 K [m/s] | speed of sound, 313.15 K [m/s] | speed of sound, 323.15 K [m/s]
x1 = 0.0507 | 854.988 | 846.802 | 838.56 | 830.183 | 1206.5 | 1176.7 | 1147.1 | 1117.3
x1 = 0.1 | 904.491 | 896.578 | 888.401 | 880.152 | 1246.2 | 1219 | 1189.9 | 1162.1
x1 = 0.1971 | 976.866 | 969.284 | 961.403 | 953.269 | 1321.9 | 1296.3 | 1268.9 | 1240.4
x1 = 0.2912 | 1026.69 | 1019.31 | 1011.46 | 1003.86 | 1384.8 | 1359.2 | 1333.8 | 1308.5
x1 = 0.3903 | 1066.1 | 1058.84 | 1051.3 | 1043.95 | 1440.8 | 1415 | 1389.7 | 1364.8
x1 = 0.4876 | 1096.19 | 1088.98 | 1081.75 | 1074.66 | 1483.8 | 1457.9 | 1432.5 | 1408
x1 = 0.5825 | 1119.75 | 1112.72 | 1105.58 | 1098.5 | 1522.5 | 1496.8 | 1471.7 | 1446.7
x1 = 0.6879 | 1141.24 | 1134.29 | – | 1120.3 | 1548.5 | 1525.3 | 1499.5 | 1475.8
x1 = 0.7938 | 1159.02 | 1152.18 | 1145.03 | 1138.28 | 1576.1 | 1556 | – | 1502.9
x1 = 0.8927 | 1173 | 1166.2 | 1159.13 | 1152.42 | 1594.2 | 1569.1 | – | 1522.3
x1 = 0.9284 | 1177.54 | 1170.73 | 1163.69 | 1157 | 1601.9 | 1579.3 | – | 1530.5

CCCC[n+]1ccc(C)cc1.F[B-](F)(F)F [1-butyl-4-methylpyridinium tetrafluoroborate] + CO
Conditions | mass density, 293.15 K [kg/m3] | mass density, 303.15 K [kg/m3] | mass density, 313.15 K [kg/m3] | mass density, 323.15 K [kg/m3] | speed of sound, 293.15 K [m/s] | speed of sound, 303.15 K [m/s] | speed of sound, 313.15 K [m/s] | speed of sound, 323.15 K [m/s]
x1 = 0.0507 | 881.091 | 872.29 | 863.158 | 854.017 | 1208.6 | 1178.1 | 1148.1 | 1119.5
x1 = 0.0989 | 939.26 | 930.783 | 922.085 | – | 1271.8 | 1242.3 | 1214.2 | –
x1 = 0.1922 | 1013.58 | 1005.46 | 997.343 | 989.026 | 1364.3 | 1337.8 | 1311.3 | 1289
x1 = 0.2934 | 1064.12 | 1056.34 | 1048.54 | 1040.72 | 1433.1 | 1409.5 | 1381.4 | 1361.5
x1 = 0.3877 | 1096.33 | 1088.9 | 1081.21 | 1073.75 | 1479.9 | 1455.9 | 1431.2 | 1407.8
x1 = 0.4839 | 1120.56 | 1113.33 | 1105.85 | 1098.72 | 1517 | 1490.9 | 1464.4 | 1439.8
x1 = 0.5909 | 1140.92 | 1133.83 | 1126.57 | 1119.63 | 1546.9 | 1521.3 | 1494.6 | 1471.5
x1 = 0.6925 | 1155.91 | 1148.93 | 1141.79 | 1134.99 | 1568.3 | 1543.5 | 1518.2 | 1494.6
x1 = 0.8001 | 1168.52 | 1161.62 | 1154.59 | 1147.87 | 1587.9 | 1563.2 | 1538.4 | 1516
x1 = 0.9042 | 1178.4 | 1171.56 | 1164.56 | 1157.92 | 1602.5 | 1577.6 | 1553.6 | 1531.3
x1 = 0.9535 | 1182.44 | 1175.62 | 1168.62 | 1162.01 | 1607.8 | 1583.1 | 1558.9 | 1536.3
